The test system of one data set is dog kidney cells. Kind of data set: Effect of nervonic acid on fatty acid toxicity (IncuCyte, CellTiter-Glo ATP assay). The class given is cell-based, Canis familiaris. The method, then:
(§1) Concentration effects of fatty acids previously shown to be toxic to aquatic fat-derived and muscle-derived cells (Example 2, Example 5, and Example 6, respectively) were evaluated, alone and in combination with nervonic acid. EPA, DHA, stearic acid, palmitic acid and nervonic acid were tested at concentrations of 0, 10, 25, and 50 ug/mL; each concentration of EPA, DHA, stearic acid and palmitic acid was also tested in combination with 10, 25 and 50 μg/ml of nervonic acid.
(§2) Cell lines were seeded per standard passaging protocols in 4×96 well plates. The cells were allowed to proliferate to approximately 80% confluence, and then transitioned to lipid loading medium containing 0/4% FBS and appropriate lipid compositions, with 6 wells/condition. Cells were monitored for 24-48 hours to evaluate any protective effect with the addition of nervonic acid.
(§3) Cells from terrestrial cell lines were imaged in the IncuCyte for a 1-time scan to collect the images and quantify confluence using the IncuCyte software. Following imaging, cell viability was determined by a commercially available ATP assay (CellTiter-Glo 2.0, Promega) where luminescent signal is proportionate to cell number.
For orientation: In ATP-based viability assays light output follows the ATP content of the culture.

Another data set has as its system rabbit skin fibroblasts. Described as above. Format: cell-based, Oryctolagus cuniculus. Here is the method: as §1, §2, §3
In another data set the test system is Bluefin tuna myoblasts. Described as above. Format: cell-based, Thunnus orientalis. Here is the method:
as §1, §2
Cells from aquatic species were placed in the IncuCyte and scanned every 6 hours up to 48 hours. Once imaging was completed, cellviability was determined by a commercially available ATP assay (CellTiter-Glo 2.0, Promega) where luminescent signal is proportionate to cell number.

Data set [1] deals with Yellowtail myoblasts. Kind of data set: Loading of single fatty acids into yellowtail myoblasts. The note with it: for lipid accumulation (BODIPY): individual BSA-conjugated fatty acid 25, 50, 75 or 100 μg/ml, 4% serum. Format: cell-based, Seriola lalandi. Here is the method:
Cells were seeded onto tissue culture polystyrene at a density of 6000 cells per cm^2. Cells were cultured in the presence of control media without fatty acids or test media with individual fatty acids conjugated to BSA at 25, 50, 75, or 100 μg/ml in the presence of 4% serum. Individual fatty acids tested included saturated fatty acids, monounsaturated fatty acids, and unsaturated fatty acids as shown in Table 7 with varying carbon chain length and location of double bonds along the carbon chain. Cell morphology was observed over a six-day period by brightfield microscopy for characteristic rounding and lipid loading.

Data set [2] relates to silver carp preadipocytes. Nature of the data set: Loading of single fatty acids into carp preadipocytes. The settings on record: six days; for lipid loading (brightfield, BODIPY lipid droplets): individual fatty acid 25, 50, 75 or 100 μg/ml; for toxicity (cell confluency, cell number): individual fatty acid up to 100 μg/ml. Format: cell-based, Hypophthalmichthys molitrix. The method, then:
Preadipocytes derived from freshwater carp as described in Example 1 were evaluated for the ability to uptake individual fatty acids. Cells were seeded onto tissue culture polystyrene at a density of 5-7000 cells per cm^2. Cells were cultured in the presence of control media without fatty acids or test media with individual fatty acids at 25, 50, 75, or 100 μg/ml in the absence of serum. Individual fatty acids tested included saturated fatty acids ([…]) and unsaturated fatty acids (linoleic acid). Cell morphology was observed over a six-day period by brightfield microscopy for characteristic rounding and lipid loading. As in Example 1, immunofluorescent staining of cells was performed for cell nuclei by DAPI, cell cytoskeleton by Phalloidin, and lipid droplets by BODIPY.

The test system of data set [3] is Yellowtail myoblasts. Nature of the data set: Loading of chemically defined fatty acid combinations (Taguchi L-27) into yellowtail myoblasts: cell number, BODIPY, Mitotracker. The class given is cell-based, Seriola lalandi. The settings on record: fatty acids each at 0, 10, 25 or 50 μg/ml, 4% serum. The method, then:
Myoblasts derived from yellowtail as described in Example 4 were evaluated for the ability to uptake fatty acids from a defined chemical composition. Cells were seeded onto tissue culture polystyrene at a density of 6000 cells per cm^2. Cells were cultured in the presence of control media without fatty acids or test media with fatty acids conjugated to BSA in the presence of 4% serum for two or six days. Concentrations were used for each individual fatty acid at 0, 10, 25, or 50 μg/ml. Combinations of fatty acids were determined using a design of experiments using a Taguchi L-27 design (Table 8). […] Cells were fixed, stained and imaged at day two or day six. Cells were treated with NucBlue, BODIPY and Mitotracker for 1.5 hours and live imaging was performed. Cells were then fixed in 4% PFA for 15 minutes and then blocked overnight at 4 degrees Celsius in blocking buffer that contained 5% goat serum, 1% BSA, and 0.2% fish gelatin in PBS. Cells were incubated with Phalloidin for 1 hour at room temperature in blocking buffer (Phalloidin 1:800). Plates were washed twice with PBS prior to imaging. JMP statistical software was used to quantify the effect of each fatty acid on cell number, fatty acid accumulation, and cell health.

The test system of data set [4] is Myoblasts or fibroblasts of chicken, duck, goose, or turkey. Kind of data set: Loading of fatty acid mixtures and single fatty acids into cells from avian species. The class given is cell-based. Here is the method:
Myoblasts or fibroblasts of chicken, duck, goose, or turkey are isolated from muscle tissue by enzymatic and mechanical/or manual dissociation. Cells are expanded in 2D tissue culture or cell suspension culture.
(§4) Cells are cultured in the presence of control media without fatty acids or test media with individual fatty acids at 1, 5, 10, 15, 25, 50, 75, or 100 μg/ml in the absence or presence of reduced serum. Fatty acids are conjugated to BSA or unconjugated. Individual fatty acids include saturated fatty acids, monounsaturated fatty acids, and poly-unsaturated fatty acids with varying carbon chain lengths and location of double bonds along the carbon chains.

The subject of data set [5] is Myoblasts or fibroblasts of cow, pork, goat, lamb, or deer. Nature of the data set: Loading of fatty acid mixtures and single fatty acids into mammalian cells. The class given is cell-based. Here is the method: Myoblasts or fibroblasts of cow, pork, goat, lamb, or deer are isolated from muscle tissue by enzymatic and mechanical/or manual dissociation. Cells are expanded in 2D tissue culture or 3D cell suspension culture.
as §4

The mark [6] stands for this setting: toxic concentration of 50 μg/mL DHA.
[7] abbreviates: 1-100 μg/ml, absence or presence of reduced serum.
Setting [8] is: added to the growth medium as the only fatty acid.

Molecules are shown by their SMILES. Entries after “also recorded” stand apart in the source; their conditions may differ.

In the case of `CC/C=C\C/C=C\C/C=C\C/C=C\C/C=C\C/C=C\CCC(=O)O` [DHA, docosahexaenoic acid], the toxic concentration in the data set on dog kidney cells (24-48 hours), with rabbit skin fibroblasts (24-48 hours) and in the data set with Bluefin tuna myoblasts (24-48 hours) was 50 µg/mL in each case. Also, the “concentration above which toxicity occurs” value in the data set on Yellowtail myoblasts [1] (altered cell morphology and decreased cell number) was “above 25 μg/ml”. Further, the “toxicity (cell morphology, cell number)” value in the data set with Yellowtail myoblasts [1] (individual fatty acid, six days) was “some toxicity effects at highest concentrations tested”.

For the compound `CCCCCCCCCCCC(=O)O` [lauric acid], in the data set with Yellowtail myoblasts [1] (six days), the “lipid accumulation (BODIPY)” value is reported as “significant accumulation at all concentrations tested; also recorded: Highest lipid loading”.

Consider `CCCCC/C=C\C/C=C\CCCCCCCC(=O)O` [linoleic acid], for which, in data set [2], the “lipid loading (brightfield, BODIPY lipid droplets)” value (shortened to “lipid loading”) is “concentration-dependent lipid accumulation; also recorded: increased loading with concentration”. Further, the “lipid accumulation (BODIPY)” value with Yellowtail myoblasts [1] (six days) is reported as “limited total loading capacity”.

In the case of `CC/C=C\C/C=C\C/C=C\CCCCCCCC(=O)O` [linolenic acid, α-linolenic acid], in the data set on Yellowtail myoblasts [1] (six days), the “lipid accumulation (BODIPY)” value is given as “lipid accumulation that was concentration-driven; also recorded: Loading at all concentrations was observed”.

Consider `CCCCCCCCCCCCCC(=O)O` [myristic acid], for which the “lipid accumulation (BODIPY)” value in the data set on Yellowtail myoblasts [1] (six days) was “limited accumulation with only small areas of uptake even at the highest concentration of 100 μg/ml”.

For `CCCCCCCC/C=C\CCCCCCCCCCCCCC(=O)O` [nervonic acid, (Z)-Tetracos-15-enoic acid], the “increase in cell number (cell ATP) in the presence of nervonic acid” value is 5.5 × in the data set with dog kidney cells (setting [6]), 42 × with rabbit skin fibroblasts (setting [6]) and 70 × in the data set on Bluefin tuna myoblasts (setting [6]). The “cell number and health (Mitotracker), viability” value in the data set on Yellowtail myoblasts [3] was “key factor in increasing lipid accumulation and cell number”. In the data set on Yellowtail myoblasts [3] (two or six days), the “lipid content / lipid accumulation (BODIPY fluorescence)” value was “key factor in increasing lipid accumulation and cell number”. Further, the “lipid uptake and lipid accumulation” value in data set [4] (setting [7]) was “causes increased lipid uptake and lipid accumulation”; in data set [5] (setting [7]), “causes increased lipid uptake and lipid accumulation”. The cell proliferation entry in data set [4] (setting [8]) and in data set [5] (setting [8]) was “increases cell proliferation” throughout. Moreover, in the data set on Yellowtail myoblasts [1] (six days), the “lipid accumulation (BODIPY)” value is “no lipid accumulation at any concentration tested; also recorded: does not load when used individually; also recorded: No lipid loading was observed”.

Take `CCCCCCCC/C=C\CCCCCCCC(=O)O` [oleic acid]: in the data set on Yellowtail myoblasts [1] (six days), the “lipid accumulation (BODIPY)” value is listed as “Loading at all concentrations was observed”.

Take `CCCCCCCCCCCCCCCC(=O)O` [palmitic acid]: the “lipid accumulation (BODIPY)” value in the data set with Yellowtail myoblasts [1] (six days) is “limited accumulation with only small areas of uptake even at the highest concentration of 100 μg/ml”.

On to `CCCCCC/C=C\CCCCCCCC(=O)O` [palmitoleic acid], for which, in data set [2], the “lipid loading” value is reported as “concentration-dependent lipid accumulation; also recorded: a peak for palmitoleic acid is reached at a lower concentration”; the “toxicity (cell confluency, cell number)” value is “reduced cell confluency indicating potential toxicity”; the “concentration above which toxicity occurs” value was “above 50 μg/ml”. Further, in data set [2] (listed as Palmitoleic acid), the “lipid loading” value is reported as “effective loading at 50 μg/ml” and the “toxicity (cell confluency, cell number)” value was “reduced cell number; also recorded: Some concentration-related toxicity”. Further, the “lipid accumulation (BODIPY)” value with Yellowtail myoblasts [1] (six days) is listed as “Loading at all concentrations was observed”.

Regarding `CCCCCCCCCCCCCCCCCC(=O)O` [stearic acid], the “lipid accumulation (BODIPY)” value with Yellowtail myoblasts [1] (six days) is recorded as “limited accumulation with only small areas of uptake even at the highest concentration of 100 μg/ml”.

For `CCCCCC/C=C\CCCCCCCCCC(=O)O` [vaccenic acid, (11Z)-11-octadecenoic acid], the “lipid accumulation (BODIPY)” value is listed as “Loading at all concentrations was observed” with Yellowtail myoblasts [1] (six days) and “taken up very readily” in the data set on Yellowtail myoblasts [1] (six days, listed as Cis-vaccenic acid).

Values taken from US20240191198A1, “CELL-CULTURED FOOD PRODUCTS AND RELATED CELLS, COMPOSITIONS, METHODS AND SYSTEMS” (BlueNalu, Inc., priority 2021, published 2024).
